Measurements as given in PMC11137198 (Frontiers in Pharmacology, 2024).
Where “and” joins values, the source holds several entries; their conditions need not be identical. Equal values may be shown once. Read-outs that look alike come from different tables or passages of the source. Marks after values point to notes of the source that are not given here.

Legend:
[1] = tested on: HAG; parameters: species or system human; settings: binding constant within HAG, PBS
Description: (§1) To calculate the K B values by means of UV absorption spectroscopy, the same Eq. 1 has been applied but using A instead of F.
Competing interactions on mixtures containing the drug and a metabolite in the presence of HAG confirmed the consistency of the determined binding constants.

[2] = target: T1, HSA (Homo sapiens, UniProt P02768); assay: Binding constant (K B) by modified Scatchard analysis from UV absorption and fluorescence; settings: binding constant within HSA, PBS
T1 construct: purchased Sigma-Aldrich
T1 sequence (P02768 25-609): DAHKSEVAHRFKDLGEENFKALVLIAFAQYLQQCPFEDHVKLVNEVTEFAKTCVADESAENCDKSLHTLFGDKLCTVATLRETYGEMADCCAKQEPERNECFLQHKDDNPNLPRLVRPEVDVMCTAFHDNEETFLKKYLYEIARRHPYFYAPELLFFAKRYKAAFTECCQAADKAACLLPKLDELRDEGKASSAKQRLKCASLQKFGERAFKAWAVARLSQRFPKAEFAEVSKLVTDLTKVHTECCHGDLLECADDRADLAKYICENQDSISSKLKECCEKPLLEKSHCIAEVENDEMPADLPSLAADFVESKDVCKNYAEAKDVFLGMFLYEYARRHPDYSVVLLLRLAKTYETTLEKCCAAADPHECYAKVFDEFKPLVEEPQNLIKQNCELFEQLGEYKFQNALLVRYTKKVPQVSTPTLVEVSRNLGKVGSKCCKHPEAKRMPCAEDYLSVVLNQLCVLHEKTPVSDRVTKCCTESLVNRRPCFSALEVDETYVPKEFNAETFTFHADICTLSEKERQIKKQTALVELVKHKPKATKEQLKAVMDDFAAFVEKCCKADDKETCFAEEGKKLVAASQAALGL
Method: as §1
An additional point to address is the strength of interaction of the drug and its two metabolites within HSA, since it is key for their transport to the specific targets and for their toxicological activity. […] To this end, a modified Scatchard analysis was performed (Supplementary Figures S6–S8).

[3] = Fluorescence of free ligand in organic solvents or PBS; type: physicochemical
Method: (§2) Steady-state fluorescence spectra were recorded on an Edinburgh FS5 spectrofluorometer, provided with a monochromator in the wavelength range of 200–900 nm using an excitation wavelength of 340 nm at room temperature. Measurements on drug@protein complexes were performed in aerated PBS of 1:1 M ratio mixtures at 10 µM. The absorbance of the samples at the excitation wavelength was kept below 0.1. The fluorescence quantum yields were determined using anthracene in ethanol as reference ([Montalti et al., 2006]).
(§3) Time-resolved fluorescence measurements were performed with an EasyLife X system containing a sample compartment composed of an automated peltier cuvette holder to control the temperature at 24°C, a pulsed LED excitation source and a lifetime detector. The employed LED excitation source was 340 nm, with emission filter of WG370. The fluorescence lifetimes (τF) were obtained upon fitting the decay traces by a non-linear fitting/deconvolution procedure F(t) = Σa i ·exp(-t/τ i ) by means of a one- or two-exponential function, depending on the investigated system. All spectroscopic measurements were done in 10 × 10 mm^2 quartz cuvettes at room temperature.
An important point to discuss is the low fluorescence yield value of GFT-M2 within the protein cavities (ϕF ∼ 0.01) compared with that obtained in cyclohexane (ϕF ∼ 0.13). […] It is worth to mention that this is a dynamic process that lowers τF values ([Tamarit et al., 2021]; [Tamarit et al., 2022]). With the aim of investigating this possibility for GFT-M2, fluorescence measurements were performed in the non-polar solvent toluene in the presence of increasing amounts of Tyr and Trp (due to solubility requirements, the N-acetyl methyl ester amino acid derivatives, namely, NAc-TyrMe or NAc-TrpMe, were used). […] It is worth to mention that using either Tyr or Trp as quenchers, a new band with λmax ∼ 490 nm arose at high amino acid concentrations (insets of Figure 3); this is attributed to emission from phenolate-like species involving interaction between hydrogen-bonded GFT-M2 and Tyr (or Trp) in the ground state. However, and as discussed above, these species have not been observed in the supramolecular GFT-M2@HSA complex, since LE states predominate. Therefore, it would exist an additional deactivation route for ^1GFT-M2* within the protein, which would be strongly affected by the conformational arrangement of the metabolite in the binding sites (see the discussion on MD simulations).

[4] = tested on: cellular milieu; parameters: method as in El Ouardi et al., 2023; settings: UVA light, biological media; ref El Ouardi et al., 2023; cited from earlier work
[5] = target: T1, HSA; assay: Steady-state and time-resolved fluorescence of ligand@HSA complexes; type: physicochemical; settings: HSA-bound
Method: as §2, §3
FIGURE 2 (A) Fluorescence spectra for GFT-M2 in PBS (gray) and for GFT-M2@HSA (green). […] Measurements were performed at λexc = 340 nm in PBS; for ligand@HSA complexes, solutions were at 1:1 M ratio (10 μM).

[6] = target: T2, HAG (Homo sapiens, UniProt P02763); type: physicochemical; settings: HAG-bound; for weight of τ1 component / weight of τ2 component / τ2 / τ1: two-exponential fit; for τ2: long component; for τ1: short component; for λmax (fluorescence): 1:1 (10 μM)
T2 construct: α1-acid glycoprotein from human plasma (HAG) were purchased from Sigma-Aldrich; purchased Sigma-Aldrich; host or cells: human plasma
T2 sequence (P02763 19-201): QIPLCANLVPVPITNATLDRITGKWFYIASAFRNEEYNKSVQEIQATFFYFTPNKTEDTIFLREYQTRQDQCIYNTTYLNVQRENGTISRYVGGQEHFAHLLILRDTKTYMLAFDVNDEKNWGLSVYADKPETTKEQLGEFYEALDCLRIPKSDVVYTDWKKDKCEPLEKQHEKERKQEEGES
Method: as §2, §3
The insets show the normalized spectra. For ligand@protein complexes, solutions were at 1:1 M ratio (10 μM).

[7] = parameters: method as in Tamarit et al., 2021; Tamarit et al., 2022; settings: cyclohexane, ref Tamarit et al., 2021, 2022; cited from earlier work
[8] = target: T1, HSA; settings: HSA-bound, λexc = 340 nm, PBS; ref 36 (Tamarit et al., 2022); cited from earlier work
[9] = tested on: HSA and HAG; assay: Competing interactions in an equimolar mixture of the two proteins (fluorescence); type: binding, human; settings: fluorescence emission, λexc = 340 nm
[10] = λexc = 340 nm, PBS, 1:1 (10 μM)

Oc1cc2ncnc(Nc3ccc(F)c(Cl)c3)c2cc1OCCCN1CCOCC1 [GFT-M2, O-desmethyl gefitinib]
K B [1]: 1.5 × 10^5 M^-1 and 1.5 ± 0.05 × 10^5 M^-1 | K B [2]: 1.8 ± 0.16 × 10^5 M^-1 | ϕF ([3]; cyclohexane): ~0.13 | fluorescence maximum ([3]; free in the bulk solution (PBS), λexc = 340 nm): ca. 440 nm | fluorescence maximum λmax ([3]; non-polar solvents): ca. 390 nm | λmax of new band at high amino acid concentrations ([3]; toluene, Tyr or Trp as quenchers, phenolate-like species): ~490 nm | fluorescence lifetime of the LE singlet state ([3]; toluene, with NAc-TyrMe or NAc-TrpMe at molar ratios 1:50 to 1:300): ca. 2.42 ns | phototoxicity [4]: much less phototoxic | weight of τ1 component ([5]; two-exponential fit): 75% | weight of τ2 component ([5]; two-exponential fit): 25% | τ2 ([5]; two-exponential fit, long component): 4.9 ns | τ1 ([5]; two-exponential fit, short component): 0.6 ns | λmax (fluorescence) [5, 10]: ~388 nm | ϕF [5, 10]: ~0.01 | τF ([5]; λexc = 340 nm, PBS, mean lifetime <τF> = a1τ1 + a2τ2): 1.0^d ns | weight of τ1 component [6]: 35% | weight of τ2 component [6]: 65% | τ2 [6]: 4.1 ns | τ1 [6]: 0.7 ns | ϕF ([6]; λexc = 340 nm, PBS): 0.03 | λmax (fluorescence) ([6]; λexc = 340 nm, PBS): ~446 nm | shoulder detected in the fluorescence spectrum ([6]; λexc = 340 nm, PBS, value between brackets): ~388 nm

COc1cc2ncnc(Nc3ccc(F)c(Cl)c3)c2cc1OCCCN1CCOCC1 [GFT, gefitinib, reference compound]
K B [1]: 1.2 × 10^5 M^-1 and 1.2 ± 0.08 × 10^5 M^-1 | ϕF [7]: ~0.19 | ϕF ([6]; λexc = 340 nm, PBS): 0.03 | τF ([6]; λexc = 340 nm, PBS, one-exponential fit, or mean lifetime where marked d): 0.8 ns

COc1cc2ncnc(Nc3ccc(F)c(Cl)c3)c2cc1O [GFT-M1, O-desmorpholinopropyl gefitinib]
K B [1]: 9.1 ± 0.32 × 10^4 M^-1 | K B [2]: 1.2 ± 0.06 × 10^5 M^-1 | τF [8]: 2.5 ^b ns | ϕF [8]: 0.15 ^b | phototoxicity [4]: highest phototoxicity | relative affinity in equimolar mixture of HSA and HAG [9]: higher affinity to HSA | weight of τ1 component [6]: 28% | weight of τ2 component [6]: 72% | τ2 [6]: ~3.1 ns | τ1 [6]: ~0.5 ns | ϕF ([6]; λexc = 340 nm, PBS): 0.04 | λmax (fluorescence) ([6]; λexc = 340 nm, PBS): ~442 nm
